{"source": "patent US20020137929A1", "about": "“1 - (3-heterocyclylphenyl) isothiourea, -isourea, -guanidine and -amidine herbicidal agents” (Intellectual Property Department, BASF Aktiengesellschaft, priority 1998, published 2002)", "key": {"[1]": {"system": "TRZAWR (Wheat, Winter, cv Riband)", "assay": "Postemergence herbicidal evaluation", "type": "in vivo, Triticum aestivum", "conditions": "postemergence", "method_in_brief": "(§1)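 Visual 0–9 rating versus control (stand, vigor, malformation, size, chlorosis, overall appearance), taken four to five weeks post-spray. Two-week-old seedlings received roughly 0.0156–0.500 kg/ha active in acetone/water (50/50) with 0.5% TWEEN 20 via nozzle at 40 psi.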"}, "[2]": {"system": "CHEAL (Lambsquarters, Common)", "assay": "Preemergence herbicidal evaluation", "type": "in vivo, Chenopodium album", "conditions": "rated 4-5 weeks after treatment", "method_in_brief": "(§2)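 Seeds were planted in potting soil in cups, then sprayed preemergence with the test compound in aqueous acetone at about 0.0156 to 0.500 kg per hectare. Cups were kept under greenhouse conditions and visually rated 4–5 weeks after treatment on a 0–9 scale against an untreated control.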"}, "[3]": {"system": "ABUTH (Velvetleaf)", "assay": "Preemergence herbicidal evaluation", "type": "in vivo, Abutilon theophrasti", "conditions": "rated 4-5 weeks after treatment", "method_in_brief": "as §2"}, "[4]": {"system": "SAGPY (Arrowhead (Pygmaea))", "assay": "Preemergence weed control under flooded paddy conditions", "type": "in vivo, Sagittaria pygmaea", "conditions": "rated 3-4 weeks after treatment", "method_in_brief": "(§3)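 Seeds or propagules sown in silt loam kept flooded 1.5-3 cm; compounds in 50/50 acetone/water pipetted into flood water at about 0.0313 to 0.500 kg/ha. Greenhouse; visual 0-9 rating versus untreated control 3-4 weeks after treatment.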"}, "[5]": {"system": "MOOVA (Monochoria)", "assay": "Preemergence weed control under flooded paddy conditions", "type": "in vivo, Monochoria vaginalis", "conditions": "rated 3-4 weeks after treatment", "method_in_brief": "as §3"}, "[6]": {"system": "GLXMAW (Soybean, Williams)", "assay": "Postemergence herbicidal evaluation", "type": "in vivo, Glycine max, (L.) Merr. cv Williams", "conditions": "postemergence", "method_in_brief": "as §1"}, "[7]": {"system": "ECHCG (Barnyardgrass)", "assay": "Postemergence herbicidal evaluation", "type": "in vivo, Echinochloa crus-galli", "conditions": "postemergence", "method_in_brief": "as §1"}, "[8]": {"system": "AMBEL (Ragweed, Common)", "assay": "Preemergence herbicidal evaluation", "type": "in vivo, Ambrosia artemisifolia", "conditions": "rated 4-5 weeks after treatment", "method_in_brief": "as §2"}, "[9]": {"system": "ORYSAT (Rice, Tebonnet)", "assay": "Preemergence herbicidal evaluation", "type": "in vivo, Oryza sativa, (L.) Tebonnet", "conditions": "rated 4-5 weeks after treatment", "method_in_brief": "as §2"}, "[10]": {"system": "GLXMAW (Soybean, Williams)", "assay": "Preemergence herbicidal evaluation", "type": "in vivo, Glycine max, (L.) Merr. cv Williams", "conditions": "rated 4-5 weeks after treatment", "method_in_brief": "as §2"}, "[11]": {"system": "CASOB (Sicklepod)", "assay": "Preemergence herbicidal evaluation", "type": "in vivo, Cassia obtusifolia", "conditions": "rated 4-5 weeks after treatment", "method_in_brief": "as §2"}, "[12]": {"system": "IPOHE (Morningglory, Ivyleaf)", "assay": "Preemergence herbicidal evaluation", "type": "in vivo, Ipomoea hederacea", "conditions": "rated 4-5 weeks after treatment", "method_in_brief": "as §2"}, "[13]": {"system": "CHEAL (Lambsquarters, Common)", "assay": "Postemergence herbicidal evaluation", "type": "in vivo, Chenopodium album", "conditions": "postemergence", "method_in_brief": "as §1"}, "[14]": {"system": "IPOHE (Morningglory, Ivyleaf)", "assay": "Postemergence herbicidal evaluation", "type": "in vivo, Ipomoea hederacea", "conditions": "postemergence", "method_in_brief": "as §1"}, "[15]": {"system": "CASOB (Sicklepod)", "assay": "Postemergence herbicidal evaluation", "type": "in vivo, Cassia obtusifolia", "conditions": "postemergence", "method_in_brief": "as §1"}, "[16]": {"system": "AMBEL (Ragweed, Common)", "assay": "Postemergence herbicidal evaluation", "type": "in vivo, Ambrosia artemisifolia", "conditions": "postemergence", "method_in_brief": "as §1"}}, "data": [{"smiles": "C#CCOC(=O)CC1SC(=Nc2cc(-n3c(=O)cc(C(F)(F)F)n(C)c3=O)c(F)cc2Cl)N(CC=C)C1=O", "note": "(stereo not shown) [Compound 67, 2-Propynyl 3-allyl-2-{{2-chloro-5-[3,6-dihydro-3-methyl-2,6-dioxo-4-(trifluoromethyl)-1(2H)-pyrimidinyl]-4-fluorophenyl}imino}-4-oxo-5-thiazolidineacetate]", "values": [{"measurement": "TRZAWR herbicidal rating", "setting": "[1]; rate 0.0158 kg/ha", "value": 5.0}, {"measurement": "TRZAWR herbicidal rating", "setting": "[1]; rate 0.0315 kg/ha", "value": 6.0}, {"measurement": "TRZAWR herbicidal rating", "setting": "[1]; rate 0.0630 kg/ha", "value": 6.5}, {"measurement": "Preemergence herbicidal rating CHEAL", "setting": "[2]; rate 0.0156 kg/ha", "value": 2.0}, {"measurement": "Preemergence herbicidal rating CHEAL", "setting": "[2]; rate 0.0313 kg/ha", "value": 9.0}, {"measurement": "Preemergence herbicidal rating CHEAL", "setting": "[2]; rate 0.0625 kg/ha", "value": 9.0}, {"measurement": "Preemergence herbicidal rating CHEAL", "setting": "[2]; rate 0.1250 kg/ha", "value": 9.0}, {"measurement": "Preemergence herbicidal rating CHEAL", "setting": "[2]; rate 0.2500 kg/ha", "value": 9.0}, {"measurement": "Preemergence herbicidal rating ABUTH", "setting": "[3]; rate 0.0156 kg/ha", "value": 1.0}, {"measurement": "Preemergence herbicidal rating ABUTH", "setting": "[3]; rate 0.0313 kg/ha", "value": 9.0}, {"measurement": "Preemergence herbicidal rating ABUTH", "setting": "[3]; rate 0.0625 kg/ha", "value": 9.0}, {"measurement": "Preemergence herbicidal rating ABUTH", "setting": "[3]; rate 0.1250 kg/ha", "value": 7.0}, {"measurement": "Preemergence herbicidal rating ABUTH", "setting": "[3]; rate 0.2500 kg/ha", "value": 9.0}, {"measurement": "SAGPY herbicidal effect rating", "setting": "[4]; 0.0313 kg/ha", "value": 0.0}, {"measurement": "SAGPY herbicidal effect rating", "setting": "[4]; 0.0625 kg/ha", "value": 4.0}, {"measurement": "SAGPY herbicidal effect rating", "setting": "[4]; 0.1250 kg/ha", "value": 4.0}, {"measurement": "SAGPY herbicidal effect rating", "setting": "[4]; 0.2500 kg/ha", "value": 6.0}, {"measurement": "MOOVA herbicidal effect rating", "setting": "[5]; 0.0313 kg/ha", "value": 9.0}, {"measurement": "MOOVA herbicidal effect rating", "setting": "[5]; 0.0625 kg/ha", "value": 9.0}, {"measurement": "MOOVA herbicidal effect rating", "setting": "[5]; 0.1250 kg/ha", "value": 9.0}, {"measurement": "MOOVA herbicidal effect rating", "setting": "[5]; 0.2500 kg/ha", "value": 9.0}, {"measurement": "GLXMAW herbicidal rating", "setting": "[6]; rate 0.0158 kg/ha", "value": 8.5}, {"measurement": "GLXMAW herbicidal rating", "setting": "[6]; rate 0.0315 kg/ha", "value": 7.5}, {"measurement": "GLXMAW herbicidal rating", "setting": "[6]; rate 0.0630 kg/ha", "value": 7.5}, {"measurement": "ECHCG herbicidal rating", "setting": "[7]; rate 0.0158 kg/ha", "value": 3.0}, {"measurement": "ECHCG herbicidal rating", "setting": "[7]; rate 0.0315 kg/ha", "value": 6.0}, {"measurement": "ECHCG herbicidal rating", "setting": "[7]; rate 0.0630 kg/ha", "value": 7.0}, {"measurement": "Preemergence herbicidal rating AMBEL", "setting": "[8]; rate 0.0156 kg/ha", "value": 0.0}, {"measurement": "Preemergence herbicidal rating AMBEL", "setting": "[8]; rate 0.0313 kg/ha", "value": 0.0}, {"measurement": "Preemergence herbicidal rating AMBEL", "setting": "[8]; rate 0.0625 kg/ha", "value": 3.0}, {"measurement": "Preemergence herbicidal rating AMBEL", "setting": "[8]; rate 0.1250 kg/ha", "value": 7.0}, {"measurement": "Preemergence herbicidal rating AMBEL", "setting": "[8]; rate 0.2500 kg/ha", "value": 7.0}, {"measurement": "Preemergence herbicidal rating ORYSAT", "setting": "[9]; rate 0.0156 kg/ha", "value": 0.0}, {"measurement": "Preemergence herbicidal rating ORYSAT", "setting": "[9]; rate 0.0313 kg/ha", "value": 0.0}, {"measurement": "Preemergence herbicidal rating ORYSAT", "setting": "[9]; rate 0.0625 kg/ha", "value": 0.0}, {"measurement": "Preemergence herbicidal rating ORYSAT", "setting": "[9]; rate 0.1250 kg/ha", "value": 1.0}, {"measurement": "Preemergence herbicidal rating ORYSAT", "setting": "[9]; rate 0.2500 kg/ha", "value": 1.0}, {"measurement": "Preemergence herbicidal rating GLXMAW", "setting": "[10]; rate 0.0156 kg/ha", "value": 0.0}, {"measurement": "Preemergence herbicidal rating GLXMAW", "setting": "[10]; rate 0.0313 kg/ha", "value": 1.0}, {"measurement": "Preemergence herbicidal rating GLXMAW", "setting": "[10]; rate 0.0625 kg/ha", "value": 2.0}, {"measurement": "Preemergence herbicidal rating GLXMAW", "setting": "[10]; rate 0.1250 kg/ha", "value": 2.0}, {"measurement": "Preemergence herbicidal rating GLXMAW", "setting": "[10]; rate 0.2500 kg/ha", "value": 2.0}, {"measurement": "Preemergence herbicidal rating CASOB", "setting": "[11]; rate 0.0156 kg/ha", "value": 0.0}, {"measurement": "Preemergence herbicidal rating CASOB", "setting": "[11]; rate 0.0313 kg/ha", "value": 0.0}, {"measurement": "Preemergence herbicidal rating CASOB", "setting": "[11]; rate 0.0625 kg/ha", "value": 0.0}, {"measurement": "Preemergence herbicidal rating CASOB", "setting": "[11]; rate 0.1250 kg/ha", "value": 2.0}, {"measurement": "Preemergence herbicidal rating CASOB", "setting": "[11]; rate 0.2500 kg/ha", "value": 2.0}, {"measurement": "Preemergence herbicidal rating IPOHE", "setting": "[12]; rate 0.0156 kg/ha", "value": 0.0}, {"measurement": "Preemergence herbicidal rating IPOHE", "setting": "[12]; rate 0.0313 kg/ha", "value": 0.0}, {"measurement": "Preemergence herbicidal rating IPOHE", "setting": "[12]; rate 0.0625 kg/ha", "value": 2.0}, {"measurement": "Preemergence herbicidal rating IPOHE", "setting": "[12]; rate 0.1250 kg/ha", "value": 3.0}, {"measurement": "Preemergence herbicidal rating IPOHE", "setting": "[12]; rate 0.2500 kg/ha", "value": 6.0}, {"measurement": "CHEAL herbicidal rating", "setting": "[13]; rate 0.0158 kg/ha", "value": 4.0}, {"measurement": "CHEAL herbicidal rating", "setting": "[13]; rate 0.0315 kg/ha", "value": 6.0}, {"measurement": "CHEAL herbicidal rating", "setting": "[13]; rate 0.0630 kg/ha", "value": 9.0}, {"measurement": "IPOHE herbicidal rating", "setting": "[14]; rate 0.0158 kg/ha", "value": 9.0}, {"measurement": "IPOHE herbicidal rating", "setting": "[14]; rate 0.0315 kg/ha", "value": 9.0}, {"measurement": "IPOHE herbicidal rating", "setting": "[14]; rate 0.0630 kg/ha", "value": 9.0}, {"measurement": "CASOB herbicidal rating", "setting": "[15]; rate 0.0158 kg/ha", "value": 0.0}, {"measurement": "CASOB herbicidal rating", "setting": "[15]; rate 0.0315 kg/ha", "value": 2.0}, {"measurement": "CASOB herbicidal rating", "setting": "[15]; rate 0.0630 kg/ha", "value": 3.0}, {"measurement": "AMBEL herbicidal rating", "setting": "[16]; rate 0.0158 kg/ha", "value": 6.0}, {"measurement": "AMBEL herbicidal rating", "setting": "[16]; rate 0.0315 kg/ha", "value": 7.0}, {"measurement": "AMBEL herbicidal rating", "setting": "[16]; rate 0.0630 kg/ha", "value": 7.0}]}]}
